Experimental data as given in PMC4089486, “Structural and biochemical analyses of alanine racemase from the multidrug-resistant Clostridium difficile strain 630” (Acta Crystallographica Section D: Biological Crystallography, 2014).

Assays:
[1] = molecular target: T1, CdAlr (C. difficile alanine racemase; CdAlrWT) (Clostridioides difficile, UniProt Q180W0); assay: X-ray co-crystal structure, […] A; format: binding; conditions: covalent; adduct with PLP (DCS) in the active site; 100 mM cycloserine
T1 construct: gene alr2; monomer 43306 Da, homodimer; WT preparation partly cleaved at position 271 (fragments 1-271 and 272-382)
T1 sequence (Q180W0 entry or part of it): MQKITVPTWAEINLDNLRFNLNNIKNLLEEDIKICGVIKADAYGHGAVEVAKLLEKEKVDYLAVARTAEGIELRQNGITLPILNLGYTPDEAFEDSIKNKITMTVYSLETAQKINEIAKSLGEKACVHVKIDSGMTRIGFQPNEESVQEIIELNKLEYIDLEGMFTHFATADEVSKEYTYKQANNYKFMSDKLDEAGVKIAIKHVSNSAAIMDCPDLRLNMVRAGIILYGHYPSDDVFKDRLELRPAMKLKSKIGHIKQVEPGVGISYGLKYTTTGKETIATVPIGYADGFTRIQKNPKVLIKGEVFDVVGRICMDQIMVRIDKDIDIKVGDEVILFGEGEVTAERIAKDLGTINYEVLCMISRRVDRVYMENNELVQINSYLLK

[2] = molecular target: T1, CdAlr (C. difficile alanine racemase; CdAlrWT); assay: X-ray crystal structure, […] A; format: binding; conditions: covalent; internal aldimine with Lys39

Row | SMILES | X-ray co-crystal structure, 2.26 A [1] | X-ray crystal structure, 2.10 A [2]
1 | N[C@@H]1CONC1=O [cycloserine] | In the CdAlrcycloserine structure, cycloserine forms a covalent adduct with PLP | 
2 | Cc1ncc(COP(=O)(O)O)c(C=O)c1O [PLP] |  | Two structures (CdAlrK271T and CdAlrPLP) contain the cofactor PLP
